The values that follow come from ChEMBL document CHEMBL1201862, “PubChem BioAssay data set” (2004).

Structures are written as SMILES.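 Method: 48-hour compound exposure of cells in 96-well plates, five concentrations, linear interpolation of endpoints. Here, GI50 denotes the concentration required for 50% inhibition of growth.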 Active and inactive are the calls of the source. Cut-off read from the data, not from the text of the source: active = GI50 up to about 1.1 µM and inactive = higher. Bounds are passed on as bounds.

Among the test systems are DU-145; MDA-MB-435; PC-3; NCI/ADR-RES; T47D; RXF 631; LXFL 529; DLD-1; XF498.
What all share (assay): NCI-60 cell line screen, 48 h

Turning to `NS(=O)(=O)c1cc(C(=O)O)c(Cl)c([N+](=O)[O-])c1Cl`, the GI50 in the experiment with DU-145, in the experiment with MDA-MB-435, with PC-3, in the experiment on NCI/ADR-RES and in the experiment with T47D was > 100 µM (inactive) throughout.
As to `NC(CCc1ncc(C(=O)O)s1)C(=O)O` (stereo not given), the GI50 in the experiment with RXF 631, in the experiment with LXFL 529 and with DLD-1 was > 100 µM (inactive) throughout.
Take `CCOC(=O)N1CCc2cc(OC)c(OC)cc2/C1=C\c1ccc(OC)c(OC)c1`: the values for the GI50 in the experiment with XF498, with LXFL 529 and in the experiment on DLD-1 were > 10 µM (inactive), 29.5 µM (inactive) and 37 µM (inactive), respectively.
For the molecule `BrC1=CCC23CC=C(Br)[C@H]4CC2(COC3)C[C@@H]1O4` (stereo not given in full), the GI50 in the experiment with XF498 is 76.6 µM (inactive); with LXFL 529 it was 40.3 µM (inactive).
Regarding `C/C(CC(=O)Nc1ccc(C)c(C)c1)=N\N(c1ccccc1)c1ccccc1`, the GI50 in the experiment with XF498 is > 100 µM (inactive); in the experiment with LXFL 529, 64.1 µM (inactive); with DLD-1, 55.7 µM (inactive).
As to `CC(=O)OC1COC(n2c(=S)n(-c3ccccc3)c(=O)c3cc(Br)ccc32)C(OC(C)=O)C1OC(C)=O` (stereo not given), the GI50 is 19.3 µM (inactive) in the experiment with XF498 and 27 µM (inactive) in the experiment with LXFL 529.
For `CCSc1c2cc(OC)ccc2nc2ccc(OC)cc12`, the GI50 in the experiment with DU-145 was 18.2 µM (inactive); in the experiment on MDA-MB-435, 5.13 µM (inactive); in the experiment on PC-3, 10.7 µM (inactive); with NCI/ADR-RES, 12.1 µM (inactive); in the experiment on T47D, 8.87 µM (inactive).
The like results for `CCOC1=NC(C(F)(F)F)(C(F)(F)F)N=C(/N=C(/N)N(C)C(C(C)C)P(=O)(OC(C)C)OC(C)C)O1` (stereo not given) were, in that order, > 100 µM (inactive), > 100 µM (inactive), > 100 µM (inactive), 31.3 µM (inactive) and 52.7 µM (inactive).
`CCOC(=O)NN1C(=O)C(=P(c2ccccc2)(c2ccccc2)c2ccccc2)C(C(=O)OC)=C1C`: the GI50 in the experiment with XF498, in the experiment with LXFL 529 and in the experiment on DLD-1 was > 100 µM (inactive) each time.
For the molecule `Clc1ccc(-c2nn3c(-c4ccncc4)nnc3s2)cc1`, the GI50 is 42.9 µM (inactive) with DU-145; > 100 µM (inactive) in the experiment on MDA-MB-435; > 100 µM (inactive) in the experiment with PC-3; > 100 µM (inactive) in the experiment on NCI/ADR-RES; > 100 µM (inactive) in the experiment on T47D.
Regarding `CN(C)C(=O)OC1=CC2CCC(C1)N2C` (stereo not given), the GI50 in the experiment with DU-145 is > 100 µM (inactive); in the experiment with MDA-MB-435, > 100 µM (inactive); in the experiment with PC-3 it was 97.5 µM (inactive); with NCI/ADR-RES, 91.6 µM (inactive); in the experiment on T47D, > 100 µM (inactive).
Consider `COC(=O)C[C@H](COCc1ccccc1)NC(=O)C[C@H](COCc1ccccc1)NC(=O)OC(C)(C)C`, for which the GI50 in the experiment on DU-145 is 22.4 µM (inactive); in the experiment on MDA-MB-435, 34 µM (inactive); in the experiment with PC-3, 26.9 µM (inactive); in the experiment with NCI/ADR-RES, 21.8 µM (inactive); with T47D, 33.9 µM (inactive).
For the molecule `Cn1cc(-c2ccc3c4ccccc4n(C)c3c2)c2ccccc21`, the GI50 in the experiment with LXFL 529 was > 100 µM (inactive).
Take `CC1=NN(c2nc(N)nc(CSCc3nc(N)nc(N(C)C)n3)n2)C(C)(C)C1`: the GI50 with DU-145, in the experiment on MDA-MB-435, in the experiment with PC-3, in the experiment on NCI/ADR-RES and with T47D was > 100 µM (inactive) in each case.
As to `CN(NC1OC(CO)C(O)C(O)C1O)c1ccccc1` (stereo not given), the GI50 is 16.4 µM (inactive) with XF498, > 100 µM (inactive) with LXFL 529 and > 100 µM (inactive) with DLD-1.
`COC(OC)c1cccc2c1C(=O)CCC1(O)c3ccccc3C1C2` (stereo not given): the GI50 in the experiment with XF498 was > 100 µM (inactive); in the experiment with LXFL 529 it was 86.3 µM (inactive); with DLD-1, > 100 µM (inactive).
`CCCCCCCCCCOC(=O)c1cc[n+](C)cc1`: the GI50 with XF498 was 17.5 µM (inactive); in the experiment with LXFL 529, 16.3 µM (inactive); with DLD-1, 18.5 µM (inactive).
As to `CCCCCC[C@H]1C(=O)O[C@H](C)[C@H](NC(=O)c2cccc(NC=O)c2OC)C(=O)O[C@@H](C)[C@@H]1OC(=O)C(C)CC.CCCCCC[C@H]1C(=O)O[C@H](C)[C@H](NC(=O)c2cccc(NC=O)c2OC)C(=O)O[C@@H](C)[C@@H]1OC(=O)CC(C)C` (stereo not given in full), the GI50 in the experiment with DU-145 is 15.7 µM (inactive); in the experiment on MDA-MB-435 it was 11.6 µM (inactive); in the experiment with PC-3, 6.28 µM (inactive); in the experiment on NCI/ADR-RES it was 7.59 µM (inactive); with T47D, 20.8 µM (inactive).
Take `OCC1OC(n2nc(-c3ccccc3)nc2-c2cnccn2)C(O)C(O)C1O` (stereo not given): the GI50 in the experiment with DU-145, in the experiment with MDA-MB-435, in the experiment with PC-3, in the experiment on NCI/ADR-RES and with T47D was > 100 µM (inactive) each time.
`O=c1c2cc(Br)ccc2nc(CNc2ccccc2)n1-c1ccccc1`: the GI50 with XF498 is 15.7 µM (inactive); in the experiment on LXFL 529, 14.9 µM (inactive); with DLD-1, 9.02 µM (inactive).
On to `CCCCn1c(C)c(C(=O)CC)c(C(=O)NCCN2CCN(c3ccccc3Cl)CC2)c1C`, for which the GI50 in the experiment on DU-145 was 20.1 µM (inactive); in the experiment on MDA-MB-435, 18.9 µM (inactive); with PC-3, 16.1 µM (inactive); in the experiment on NCI/ADR-RES, 16 µM (inactive); in the experiment on T47D, 21.8 µM (inactive).
The like results for `O=C(/C=C/c1ccc2c(c1)OCO2)Cc1nc2ccccc2[nH]c1=O` were, in that order, 29.2 µM (inactive), 20 µM (inactive), 23.2 µM (inactive), 22.1 µM (inactive) and 12 µM (inactive).
As to `CC1(O)C(C)(O)C(C)(O)C1(C)O` (stereo not given), the GI50 in the experiment on XF498, in the experiment on LXFL 529 and in the experiment on DLD-1 was > 100 µM (inactive) in each case.
In the case of `O=c1c2cccnc2ncn1CCN1CCCC1`, the GI50 in the experiment with XF498, in the experiment with LXFL 529 and in the experiment on DLD-1 was > 100 µM (inactive) in each case.
`O=C1Nc2ccc(Br)cc2/C1=N/Nc1ccc([N+](=O)[O-])cc1[N+](=O)[O-]`: the GI50 was 3.66 µM (inactive) with LXFL 529 and 4.58 µM (inactive) with DLD-1.
As to `[N-]=[N+]=NC(c1cn(C2CC(O)C(CO)O2)c(=O)[nH]c1=O)C(Br)I` (stereo not given), the GI50 in the experiment on LXFL 529 and in the experiment on DLD-1 was > 100 µM (inactive) throughout.
For the molecule `C[C@]12CCC3c4ccc(OC(=O)c5ccccc5)cc4CC[C@H]3C1CC[C@@H]2OC(=O)C12OC1CCC2=O` (stereo not given in full), the GI50 with XF498 was 5.82 µM (inactive); in the experiment with LXFL 529, 1.91 µM (inactive); in the experiment on DLD-1 it was 2.47 µM (inactive).
Regarding `COc1cccc(-c2cc(=O)c3cc(N4CCCCC4)ccc3[nH]2)c1`, the GI50 in the experiment on DU-145 is 0.0622 µM (active); with MDA-MB-435, < 0.01 µM (active); with PC-3, < 0.0129 µM (active); with NCI/ADR-RES it was 0.02 µM (active); in the experiment with T47D, > 100 µM (inactive).
As to `Cc1c[n+]2c3ccccc3c3ccccc3c2s1.[O-][Cl+3]([O-])([O-])[O-]`, the GI50 in the experiment with XF498 was 3.19 µM (inactive); in the experiment with LXFL 529, 3.16 µM (inactive); with DLD-1 it was 12 µM (inactive).
With `O=C(OCCN=c1c2ccccc2ccc2ccccc12)c1cc([N+](=O)[O-])cc([N+](=O)[O-])c1`, the GI50 with DU-145, in the experiment with MDA-MB-435, in the experiment with PC-3, in the experiment on NCI/ADR-RES and in the experiment with T47D was > 100 µM (inactive) in each case.
For `CC[N+](CC)(CC)/C(=N\S(=O)(=O)c1ccc(Cl)cc1)[N-]S(=O)(=O)c1cc(C)c(Cl)cc1S`, the GI50 is 97.3 µM (inactive) in the experiment on DU-145; > 100 µM (inactive) in the experiment on MDA-MB-435; 55.8 µM (inactive) in the experiment with PC-3; > 100 µM (inactive) in the experiment with NCI/ADR-RES; > 100 µM (inactive) in the experiment on T47D.
`C1CCN2CC3CONC3C2C1` (stereo not given): the GI50 with XF498, in the experiment with LXFL 529 and with DLD-1 was > 100 µM (inactive) in each case.
For `O=C(c1ccccc1)c1c(CC(O)c2ccccn2)n(C(=O)c2ccccc2)c2ccccc12` (stereo not given), the GI50 in the experiment with XF498 is 20.4 µM (inactive); in the experiment on LXFL 529, 28.5 µM (inactive); in the experiment with DLD-1 it was 26.9 µM (inactive).
For `COC(=O)N(C(=O)OC)C(C(=O)O)C(C)C` (stereo not given), the GI50 with LXFL 529 and in the experiment with DLD-1 was > 100 µM (inactive) in each case.
With `O=S(=O)(O)c1cc(S(=O)(=O)O)c2c(/N=N/c3ccccc3)c(O)ccc2c1`, the GI50 with DU-145, in the experiment with MDA-MB-435, with PC-3, in the experiment on NCI/ADR-RES and in the experiment with T47D was > 100 µM (inactive) each time.
As to `CN(Cc1cnc2nc(N)nc(N)c2n1)c1ccc(C(=O)NC(CCC(=O)NCCC(P(=O)(O)O)P(=O)(O)O)C(=O)O)cc1` (stereo not given), the GI50 is 21.2 µM (inactive) with DU-145; 6.03 µM (inactive) in the experiment on MDA-MB-435; 1.79 µM (inactive) in the experiment on PC-3; 21.5 µM (inactive) in the experiment with NCI/ADR-RES; > 67.9 µM (inactive) with T47D.
As to `C[C@]12C[C@@H](OC(=O)[C@]1(C)O)[C@@H]([C@]1(O)CC[C@H]3[C@@H]4C[C@H]5O[C@]56C[C@H]5O[C@H]5C(=O)[C@]6(C)[C@H]4CC[C@@]31C)C2`, the GI50 in the experiment on DU-145, in the experiment with MDA-MB-435, in the experiment with PC-3, with NCI/ADR-RES and in the experiment with T47D was > 50 µM (inactive) throughout.
For the molecule `CC1CC(=O)C2CC(CO)=CCCC2C1(C)CC/C(=C/CO)CO` (stereo not given), the GI50 in the experiment with LXFL 529 and in the experiment with DLD-1 was > 100 µM (inactive) each time.
For `O=C(O)c1cc2cc(OCc3ccccc3)ccc2[nH]1`, the GI50 in the experiment on DU-145, in the experiment on MDA-MB-435, with PC-3, in the experiment with NCI/ADR-RES and with T47D was > 100 µM (inactive) in each case.
`COc1ccc2c(=O)c(C)c(-c3ccccc3)oc2c1CN(C)C` [DIMEFLINE]: the GI50 was 69.3 µM (inactive) with XF498, > 100 µM (inactive) in the experiment with LXFL 529 and > 100 µM (inactive) in the experiment on DLD-1.
For `C=C1C[C@]23C[C@@]1(O)CC[C@H]2[C@@]12C=C[C@H](O)[C@@](C)(C(=O)O1)[C@H]2[C@@H]3C(=O)O` [GIBBERELLIN A3], the GI50 with XF498 and with DLD-1 was > 100 µM (inactive) in each case.
